{
  "source": "patent US20050257279A1",
  "about": "“Agouti-related protein deficient cells, non-human transgenic animals and methods of selecting compounds which regulate energy metabolism” (priority 2002, published 2005)",
  "key": {"[1]": {"test_system": "primary cultures of rat anterior pituitary cells", "assay": "Rat pituitary growth hormone (GH) release", "assay_type": "cell-based", "conditions": "15 min incubation", "method": "Rat Pituitary Growth Hormone (GH) Release: Compound functional activity was evaluated by measuring growth hormone secretion from primary cultures of rat anterior pituitary cells (Small, et al., (1998) Regulatory Peptides 75-76 and 301-307). Cells were isolated from rat pituitaries by enzymatic digestion with 250 μg/mL DNAse 1 and 0.5% trypsin in Hanks' balanced salt solution. The cells were suspended in culture medium and adjusted to a concentration of 1.5×10^5 cells/ml and 1.0 ml of this suspension was placed in each well of a 24-well tray. Cells were maintained in a humidified 5% CO2/95% air atmosphere at 37° C. for 3-4 days. The culture medium consisted of DMEM containing 0.37% NaHCO3, 10% horse serum, 2.5% fetal bovine serum, 1% nonessential amino acids, 1% glutamine, 1% nystatin, and 0.1% gentamicin. Before testing compounds for their capacity to […] GH release, cells were washed twice 1.5 hr before and once more immediately before the start of the experiment with the above culture medium containing 25 mM Hepes (pH 7.4). Compounds were tested in quadruplicate by adding them in 1 ml of fresh medium to each well and incubating them at 37° C. for 15 minutes followed by centrifugation at 2000×g for 15 min to remove any cellular material. The supernatant fluid was assayed for GH by a double antibody radioimmunoassay."}, "[2]": {"assay": "4-hour light-phase food intake in mice", "assay_type": "in vivo", "conditions": "human ghrelin 3 μmole/kg i.p.", "excerpt": "Mice were individually housed at approximately one month of age. Regular mouse chow (Teklad 7012: 5.67% kcal from fat; 3.41 kcal/g, Harlan Teklad) was provided as pellet food in wire cage tops containing food hoppers.\nFood intake values were reported as means ± standard errors of the means, and analyzed by the two tailed, unpaired Student t test. P values of <0.05 were reported as significant."}},
  "note": "Entries after “also recorded” stand apart in the source; their conditions may differ.",
  "data": [
    {"smiles": "CCCCCCCC(=O)OC[C@H](NC(=O)[C@H](CO)NC(=O)CN)C(=O)N[C@@H](Cc1ccccc1)C(=O)N[C@@H](CC(C)C)C(=O)N[C@@H](CO)C(=O)N1CCC[C@H]1C(=O)N[C@@H](CCC(=O)O)C(=O)N[C@@H](Cc1c[nH]cn1)C(=O)N[C@@H](CCC(N)=O)C(=O)N[C@@H](CCCNC(=N)N)C(=O)N[C@H](C(=O)N[C@@H](CCC(N)=O)C(=O)N[C@@H](CCC(N)=O)C(=O)N[C@@H](CCCNC(=N)N)C(=O)N[C@@H](CCCCN)C(=O)N[C@@H](CCC(=O)O)C(=O)N[C@@H](CO)C(=O)N[C@@H](CCCCN)C(=O)N[C@@H](CCCCN)C(=O)N1CCC[C@H]1C(=O)N1CCC[C@H]1C(=O)N[C@@H](C)C(=O)N[C@@H](CCCCN)C(=O)N[C@@H](CC(C)C)C(=O)N[C@@H](CCC(N)=O)C(=O)N1CCC[C@H]1C(=O)N[C@@H](CCCNC(=N)N)C(=O)O)C(C)C", "note": "[Ghrelin]", "values": [
      {"measurement": "EC50", "setting": "[1]", "value": 0.7, "unit": "nM"},
      {"measurement": "effect on 4-hour food intake", "setting": "[2]; Agrp-/-, Npy-/- double knockout mice", "value": "no effect; also recorded: without effect"},
      {"measurement": "stimulation of 4-hour food intake", "setting": "[2]; wild-type control mice, ad libitum fed, relative to saline", "value": 120, "unit": "%"},
      {"measurement": "effect on 4-hour food intake", "setting": "[2]; wild-type mice, relative to saline", "value": "stimulated 4-hour food intake"}
    ]}
  ]
}
